# T1: oxidized phospholipid degrading enzyme (purified enzyme) (Bos taurus, UniProt Q29460)
# T1 construct: from tissue; host or cells: bovine brain gray matter, soluble cytoplasmic fraction
# T1 sequence (Q29460 2-232): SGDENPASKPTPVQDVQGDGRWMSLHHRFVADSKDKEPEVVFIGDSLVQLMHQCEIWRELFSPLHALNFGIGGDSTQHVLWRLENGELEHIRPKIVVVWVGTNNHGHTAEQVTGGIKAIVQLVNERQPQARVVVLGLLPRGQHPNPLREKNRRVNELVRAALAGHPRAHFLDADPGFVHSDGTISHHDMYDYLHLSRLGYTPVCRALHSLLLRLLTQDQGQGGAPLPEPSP
# T1 sequence (P68401 2-229 partner limits assumed): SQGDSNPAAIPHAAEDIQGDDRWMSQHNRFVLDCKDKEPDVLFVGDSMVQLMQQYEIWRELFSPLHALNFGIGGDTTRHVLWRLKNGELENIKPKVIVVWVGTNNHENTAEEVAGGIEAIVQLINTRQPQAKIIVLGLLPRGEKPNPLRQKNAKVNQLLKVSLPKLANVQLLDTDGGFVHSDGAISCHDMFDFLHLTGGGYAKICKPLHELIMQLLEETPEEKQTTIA
# T1 sequence (P43033 2-410 A26E/E154Q partner limits assumed): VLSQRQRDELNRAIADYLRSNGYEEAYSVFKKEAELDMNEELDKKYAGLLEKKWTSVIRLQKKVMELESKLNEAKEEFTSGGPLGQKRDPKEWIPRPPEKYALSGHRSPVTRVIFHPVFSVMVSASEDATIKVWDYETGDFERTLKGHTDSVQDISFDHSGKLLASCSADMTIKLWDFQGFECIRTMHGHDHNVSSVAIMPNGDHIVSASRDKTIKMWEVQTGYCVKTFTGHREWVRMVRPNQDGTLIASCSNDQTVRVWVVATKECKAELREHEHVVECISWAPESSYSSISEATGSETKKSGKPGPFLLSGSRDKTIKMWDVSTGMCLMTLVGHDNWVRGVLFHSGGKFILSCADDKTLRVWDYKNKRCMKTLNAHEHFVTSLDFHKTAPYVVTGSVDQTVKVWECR
# T2: 30 kDa-29 kDa complex without the 45 kDa subunit (bovine)
# T2 chain 1: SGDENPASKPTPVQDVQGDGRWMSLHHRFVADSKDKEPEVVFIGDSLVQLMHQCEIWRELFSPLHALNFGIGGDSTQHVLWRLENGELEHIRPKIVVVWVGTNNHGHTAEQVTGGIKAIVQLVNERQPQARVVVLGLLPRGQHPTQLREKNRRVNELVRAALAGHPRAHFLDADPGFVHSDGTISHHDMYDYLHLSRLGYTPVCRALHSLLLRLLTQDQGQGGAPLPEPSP
# T2 chain 2: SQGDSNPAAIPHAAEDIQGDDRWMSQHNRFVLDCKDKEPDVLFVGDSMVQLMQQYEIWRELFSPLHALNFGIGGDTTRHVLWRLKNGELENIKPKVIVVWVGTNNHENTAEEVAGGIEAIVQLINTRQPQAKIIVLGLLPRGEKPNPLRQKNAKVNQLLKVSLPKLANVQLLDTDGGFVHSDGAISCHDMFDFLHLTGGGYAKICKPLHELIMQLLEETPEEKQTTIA
# T3: 30 kDa subunit of the oxidized phospholipid degrading enzyme (bovine)
# T3 chain: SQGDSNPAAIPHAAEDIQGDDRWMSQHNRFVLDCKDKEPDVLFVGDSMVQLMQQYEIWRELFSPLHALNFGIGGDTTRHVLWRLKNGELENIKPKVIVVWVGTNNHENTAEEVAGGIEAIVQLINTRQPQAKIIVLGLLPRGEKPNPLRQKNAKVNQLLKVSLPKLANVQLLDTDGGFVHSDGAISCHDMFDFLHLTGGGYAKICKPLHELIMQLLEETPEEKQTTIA
# Experiments:
# [1] = biological target: T1, oxidized phospholipid degrading enzyme (purified enzyme); test: Substrate specificity of the purified enzyme; type: biochemical, bovine
# Method: (§1) They were mixed in a test tube over ice and then incubated at 37° C. for 30 minutes. Thereafter, 560 μl of a chloroform-methanol (1:1) mixture were added to terminate the reaction. After the resulting mixture was vigorously mixed for 5 minutes by a vortex stirrer, the mixture was centrifuged for 5 minutes at 3,000 rpm to separate it into two layers. From the upper layer, 300 μl were collected, in which 3 ml of "Clearsol I" (product of NACALAI TESQUE INC.) were mixed. The radioactivity was measured by a liquid scintillation counter. From the intensity of the radioactivity, the amount of the dicarboxylic acid formed as a result of 2-hydrolysis was calculated to determine the enzyme activity.
# (§2) Namely, Tris-HCl buffer (final concentration: 50 mM, pH 7.4) which contained as a substrate 20 nmol (6,000 dpm) of the labeled PAF obtained in step (a) was added with 5 mM EDTA or 4 mM CaCl2 as needed, to which the sample (enzyme source) to be measured was added to give a total volume of 250 μl.
# as §1, with “2.5 ml” for “560 μl”, “(4:1)” for “(1:1)”, “Subsequent to addition of 0.25 ml of water,” for “After”, “stirrer and then” for “stirrer, the mixture was”, “600” for “300”, “acetic” for “the dicarboxylic”
# [2] = biological target: T1, oxidized phospholipid degrading enzyme (purified enzyme); test: biochemical; set-up: species or system bovine
# [3] = test system: oxidized phospholipid degrading enzyme; test: Influence of calcium ions on the enzyme activity; type: biochemical, bovine; settings: 4 mM calcium chloride
# Method: as §2, with “Measurement of the oxidized phospholipid degrading enzyme by using PAF was conducted in a similar manner to Reference Example 2. Namely,” for “Namely,”
# as §1, with “2.5 ml” for “560 μl”, “(4:1)” for “(1:1)”, “Subsequent to addition of 0.25 ml of water,” for “After”, “stirrer and then” for “stirrer, the mixture was”, “600” for “300”, “acetic” for “the dicarboxylic”
# The enzyme activity was measured by the measuring method of Reference Example 3 except that 4 mM CaCl2 was added instead of 5 mM of EDTA.
# [4] = biological target: T2, 30 kDa-29 kDa complex without the 45 …; test: co-purification of the native enzyme; gel filtration and SDS-PAGE
# [5] = biological target: T3, 30 kDa subunit of the oxidized …; test: heparin Sepharose or sulfated Cellulofine column treatment of the native enzyme
# Method: Against buffer A, 15 ml of the roughly purified fraction obtained in step (e) of Example 1 were dialyzed. The solution so dialyzed was then applied to a column (1×5 cm) of "heparin Sepharose" (product of Pharmacia AB) which had been equilibrated with buffer A, whereby about 80% of the enzyme activity passed through the column without adsorption. When the column was washed with buffer A subsequent to the passage of the dialyzed solution, the activity was gradually eluted with tailing.
# After the column was washed with about 30 ml of buffer A, the enzyme was eluted with a 30 ml linear gradient of NaCl (0M to 1.5M) in buffer A. The enzyme activity was eluted around about 0.3M NaCl concentration. […] Further, the fractions eluted around about 0.6M NaCl concentration gave only one spot at 45 kDa.
# [6] = in the presence of 4 mM CaCl2, method of Dole et al.
molecule,measurement,setting,value
"CCCCCCCCCCCCCCCCOC[C@H](COP(=O)([O-])OCC[N+](C)(C)C)OC(C)=O [PAF, 1-hexadecyl-2-acetyl-sn-glycero-3-phospho-choline]",Degrading activity / hydrolysis by the enzyme (in words),[1],shows degrading activity
same,Specific activity,[1]; method of Reference Examples 2 and 3,1.45 nmol/min/mg
"O=C(CBr)c1ccc(Br)cc1 [BPB, p-bromophenacyl bromide]",Inhibition of enzyme reactions (in words),[2],inhibited
same,"Inhibition of the purified enzyme (in words, summary of Table 3)",[2],inhibited
same,inhibition at 100 µM,[2],20%
same,inhibition at 1000 µM,[2],97%
phosphatidylethanolamine [PE],Degrading activity / hydrolysis by the enzyme (in words),[1],does not show any degrading activity
same,Specific activity,[1]; [6],Not degraded
"NC(=O)CI [IAM, iodoacetamide]",Inhibition of enzyme reactions (in words),[2],not inhibited
same,"Inhibition of the purified enzyme (in words, summary of Table 3)",[2],not inhibited at all
same,inhibition at 100 µM,[2],0%
same,inhibition at 1000 µM,[2],0%
"CCCCCCCCCCCCCCCC(=O)OC[C@@H](O)COP(=O)([O-])OCC[N+](C)(C)C [Lyso PC, 1-palmitoyl-sn-glycero-3-phosphocholine]",Degrading activity / hydrolysis by the enzyme (in words),[1],absolutely no degrading activity
same,Specific activity,[1]; [6],Not degraded
"[Ca+2].[Cl-].[Cl-] [CaCl2, calcium chloride]",Enhancement of enzyme activity (in words),[3],slightly enhanced
45 kDa subunit of the oxidized phospholipid degrading enzyme (other) VLSQRQRDELNRAIADYLRSNGYEEAYSVFKKEAELDMNEELDKKYAGLLEKKWTSVIRLQKKVMELESKLNEAKEEFTSGGPLGQKRDPKEWIPRPPEKYALSGHRSPVTRVIFHPVFSVMVSASEDATIKVWDYETGDFERTLKGHTDSVQDISFDHSGKLLASCSADMTIKLWDFQGFECIRTMHGHDHNVSSVAIMPNGDHIVSASRDKTIKMWEVQTGYCVKTFTGHREWVRMVRPNQDGTLIASCSNDQTVRVWVVATKECKAELREHEHVVECISWAPESSYSSISEATGSETKKSGKPGPFLLSGSRDKTIKMWDVSTGMCLMTLVGHDNWVRGVLFHSGGKFILSCADDKTLRVWDYKNKRCMKTLNAHEHFVTSLDFHKTAPYVVTGSVDQTVKVWECR,binding result,[4],binds
29 kDa subunit of the oxidized phospholipid degrading enzyme (enzyme) SGDENPASKPTPVQDVQGDGRWMSLHHRFVADSKDKEPEVVFIGDSLVQLMHQCEIWRELFSPLHALNFGIGGDSTQHVLWRLENGELEHIRPKIVVVWVGTNNHGHTAEQVTGGIKAIVQLVNERQPQARVVVLGLLPRGQHPTQLREKNRRVNELVRAALAGHPRAHFLDADPGFVHSDGTISHHDMYDYLHLSRLGYTPVCRALHSLLLRLLTQDQGQGGAPLPEPSP,binding result,[5],binds

# From patent publication US5849557A, “Oxidized phospholipid degrading enzyme and gene thereof” (Suntory Limited, priority 1993, dated 1998)
